The results in this text go back to patent US20190367520A1, “NEW COMPOUND HAVING FGFR INHIBITORY ACTIVITY AND PREPARATION AND APPLICATION THEREOF” (SHANGHAI INSTITUTE OF MATERIA MEDICA, CHINESE ACADEMY OF …, priority 2016, published 2019).

A word on the IC50: it is the concentration at which inhibition is half-maximal.

Structures are written as SMILES.

Test [1] deals with FGFR4 kinase domain recombinant protein (Homo sapiens, UniProt P22455). The experiment in a line: FGFR4 enzyme activity at molecular level (ELISA, Poly(Glu,Tyr) 4:1 substrate). For orientation: In an ELISA, binding on a coated surface is turned into a signal by an enzyme label.
Chain of FGFR4 kinase domain recombinant protein (P22455 467-755 limits assumed): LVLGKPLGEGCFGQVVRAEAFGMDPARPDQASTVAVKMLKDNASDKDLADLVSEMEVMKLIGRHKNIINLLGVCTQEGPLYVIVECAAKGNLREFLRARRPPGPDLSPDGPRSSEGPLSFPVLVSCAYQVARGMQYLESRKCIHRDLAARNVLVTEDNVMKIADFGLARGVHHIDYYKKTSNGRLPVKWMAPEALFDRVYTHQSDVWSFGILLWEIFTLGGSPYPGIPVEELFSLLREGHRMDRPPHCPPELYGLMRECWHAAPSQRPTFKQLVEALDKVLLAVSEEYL
Procedure: (§1) The plate was placed at 37° C. for 12-16 hours. The liquid in the well was discarded, the plate was washed, and the panel was washed three times with 200 μL/well of T-PBS (PBS containing 0.1% Tween-20) for 5 minutes each time.
(§2) 50 μL of ATP solution diluted with reaction buffer (50 mM HEPES pH 7.4, 50 mM MgCl2, 0.5 mM MnCl2, 0.2 mM Na3VO4, 1 mM DTT) was added to each well to a final concentration of 5 μM. The compound was diluted to a suitable concentration in DMSO, 1 μL/well or containing the corresponding concentration of DMSO (negative control well), and the FGFR1, FGFR4 kinase domain recombinant protein diluted in 49 μL of reaction buffer was added to initiate the reaction. Two control wells without ATP were required for each experiment. The reaction was carried out for 1 hour at 37° C. on a shaker (100 rpm). The plate was washed three times with T-PBS. Primary antibody, PY99 dilution was added at 100 μL/well and shaken at 37° C. for 0.5 hour. The plate was washed three times with T-PBS. Secondary antibody, horseradish peroxidase-labeled goat anti-mouse IgG dilution was added at 100 μL/well, and shaken at 37° C. for 0.5 hour. […] (Ultrasound was required for the dissolution of OPD, and the chromogenic solution needed to be prepared when used). 2 M H2SO4 was added at 50 μL/well to quench the reaction and a tunable wavelength microplate reader SPECTRA MAX 190 was used at a wavelength of 490 nm.
(§3) The inhibition rate of the sample was obtained by the following formula:
(§4) The IC50 value was obtained by four-parameter regression using the software attached to the microplate reader.
Test [2] addresses FGFR1 kinase domain recombinant protein (Homo sapiens, UniProt P11362). Description: FGFR1 enzyme activity at molecular level (ELISA, Poly(Glu,Tyr) 4:1 substrate).
Procedure: as §1, §2, §3, §4

Chain of FGFR1 kinase domain recombinant protein (P11362 478-767 limits assumed): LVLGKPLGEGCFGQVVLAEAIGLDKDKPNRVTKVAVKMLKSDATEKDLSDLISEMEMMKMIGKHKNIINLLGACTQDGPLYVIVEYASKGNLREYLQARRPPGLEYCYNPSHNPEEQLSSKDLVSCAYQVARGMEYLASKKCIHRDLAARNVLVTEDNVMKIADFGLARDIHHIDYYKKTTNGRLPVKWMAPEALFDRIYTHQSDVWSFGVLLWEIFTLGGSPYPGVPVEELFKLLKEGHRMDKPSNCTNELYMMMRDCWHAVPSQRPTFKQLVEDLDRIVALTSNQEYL

Turning to `C=C(CN(CC)CC)C(=O)N1CC(n2cc(-c3cc4cc(C)cc(OC)c4s3)c3c(N)ncnc32)C1` [NO. 51, 1-(3-(4-amino-5-(7-methoxy-5-methylbenzothiophene-2-yl)-7H-pyrrole[2,3-d]pyrimidine-7-yl)azetidine-1-yl)-2-((diethylamino)methylene)prop-2-en-1-one], the IC50 in test [1] and in test [2] was < 10 nM throughout.

With `C=C(CN1CCN(C)CC1)C(=O)N1CC(n2cc(-c3cc4cc(C)cc(OC)c4s3)c3c(N)ncnc32)C1` [NO. 52, 1-(3-(4-amino-5-(7-methoxy-5-methylbenzothiophene-2-yl)-7H-pyrrole[2,3-d]pyrimidine-7-yl)azetidine-1-yl)-2-((4-methylpiperazin-1-yl)methylene)prop-2-en-1-one], the IC50 in test [1] and in test [2] was < 10 nM in each case.

For the molecule `C=C(CN(C)C)C(=O)N1CC(n2cc(-c3cc4cc(C)cc(OC)c4s3)c3c(N)ncnc32)C1` [NO. 53, 1-(3-(4-amino-5-(7-methoxy-5-methylbenzothiophene-2-yl)-7H-pyrrole[2,3-d]pyrimidine-7-yl)azetidine-1-yl)-2-((dimethylamino)methylene)prop-2-en-1-one], the 50% inhibitory concentration (IC50) in test [1] and in test [2] was < 10 nM in each case.

Regarding `C=C(CN1CCOCC1)C(=O)N1CC[C@H](n2nc(-c3cc4cc(C)cc(OC)c4s3)c3c(N)ncnc32)C1` [NO. 54, (S) 1-(3-(4-amino-3-(7-methoxy-5-methylbenzothiophene-2-yl)-1H-pyrazole[3,4-d]pyrimidine-1-yl)pyrrolidine-1-yl)-2-(morpholinemethylene)prop-2-en-1-one], the IC50 in test [1] is 10 to 100 nM; in test [2], < 10 nM.

For the molecule `C=C(CN1CCOCC1)C(=O)N1CC(n2nc(-c3cc4cc(C)cc(OC)c4s3)c3c(N)ncnc32)C1` [NO. 55, 1-(3-(4-amino-3-(7-methoxy-5-methylbenzothiophene-2-yl)-1H-pyrazole[3,4-d]pyrimidin-yl)azetidine-1-yl)-2-(morpholinemethylene)prop-2-en-1-one], the IC50 in test [1] and in test [2] was < 10 nM in each case.

In the case of `C=CC(=O)N1CC[C@H](n2nc(-c3cc4cc(C)cc(OC)c4s3)c3c(N)ncnc32)C1` [NO. 56, (S) 1-(3-(4-amino-3-(7-methoxy-5-methylbenzothiophene-2-yl)-1H-pyrazole[3,4-d]pyrimidine-1-yl)pyrrolidine-1-yl)prop-2-en-1-one], the IC50 in test [1] and in test [2] was < 10 nM each time.

In the case of `C=CC(=O)N1CCC(n2cc(-c3cc4cc(C(F)(F)F)cc(OC)c4s3)c3c(N)ncnc32)C1` (centres unmarked) [NO. 58, 1-(3-(4-amino-5-(7-methoxy-5-(trifluoromethyl)benzothiophene-2-yl)-7H-pyrrole[2,3-d]pyrimidine-7-yl)pyrrolidine-1-yl)prop-2-en-1-one], the IC50 in test [1] and in test [2] was < 10 nM throughout.

As to `C=CC(=O)N1CCC(n2cc(-c3cc4cc(C)cc(OC)c4s3)c3c(N(C)C)ncnc32)C1` (centres unmarked) [NO. 63, 1-(3-(4-(dimethylamino)-5-(7-methoxy-5-methylbenzothiophene-2-yl)-7H-pyrrole[2,3-d]pyrimidine-7-yl)pyrrolidine-1-yl)prop-2-en-1-one], the IC50 in test [1] and in test [2] was > 100 nM in each case.

For the molecule `COc1cc(C)cc2cc(-c3cn(C4CCN(C(=O)/C=C/CN5CCC(F)C5)C4)c4ncnc(N)c34)sc12` (centres unmarked) [NO. 69, (E)-1-(3-(4-amino-5-(7-methoxy-5-methylbenzothiophene-2-yl)-7H-pyrrole[2,3-d]pyrimidine-7-yl)pyrrolidine-1-yl)-4-(3-fluoropyrrolidin-1-yl)but-2-en-1-one], the IC50 in test [1] was 10 to 100 nM; in test [2], < 10 nM.

Consider `COc1cc(C)cc2cc(-c3cn(CCN4CCOCC4)c4ncnc(N)c34)sc12` [NO. 76, 5-(7-methoxy-5-methylbenzothiophene-2-yl)-7-(2-morpholineethyl)-7H-pyrrole[2,3-d]p yrimidine-4-amine], for which the IC50 was > 100 nM in test [1] and 10 to 100 nM in test [2].
